Reference: patent US20110319392A1, “Thiazole Sulfonamide And Oxazole Sulfonamide Kinase Inhibitors” (priority 2009, published 2011)
pIC50: −log10 of the molar value. Counter-ions that a name gives are not always drawn.

Assays:
[1] = molecular target: T1, ErbB2 (Homo sapiens, UniProt P04626); experiment: ErbB-2 substrate phosphorylation assay (HTRF); assay type: biochemical
T1 construct: made in house; host or cells: baculovirus expression system
Procedure, shortened: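 Baculovirus-expressed EGFR (0.8 nM) or ErbB2 (10 nM) in enzyme mix, preincubated 1 h at 20 °C with compound (0.00027–47.6 μM final), then 90 min at 20 °C with substrate mix of 20 μM ATP, 0.8 uM biotinylated Peptide C, MnCl2, MOPS pH 7.5. Phosphotyrosine by HTRF; pIC50 reported.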

[2] = tested on: Colo205 tumor cells; experiment: Cell growth inhibition assay (CellTiter-Glo), Colo205; assay type: cell-based, Human; conditions: Homo sapiens, COLO 205, 72 h; 3 days incubation
Procedure, shortened: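 Cells plated at 500 cells/well in their growth media, dosed next day with nine-step 1:3 compound dilutions (final DMSO 0.2%), then incubated 3 days at 37° C, 5% CO2. Total ATP read by CellTiter-Glo luminescence as a surrogate for cell number; IC50 interpolated from 4-parameter fit versus DMSO controls.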

[3] = tested on: A375P F11s tumor cells; experiment: Cell growth inhibition assay (CellTiter-Glo), A375P F11s; assay type: cell-based, Human; conditions: Homo sapiens
Procedure: Human breast tumor cells (BT474) were cultured in RPMI (Mediatech […]), containing 10% FBS (JRH Biosciences 12176) and 1% penicillin-streptomycin (Invitrogen 15140). Human head and neck tumor cells (HN5) were cultured in high glucose DMEM (Mediatech 50-013-PB) containing 10% FBS and 1% penicillin-streptomycin. Human colon tumor cells (Colo205) were cultured in RPMI (Mediatech 50-020-PB) containing 10% FBS and 1% penicillin-streptomycin. Human melanoma cancer cells (SK-MEL-28) were cultured in EMEM with nonessential amino acids (Mediatech 50-011-PB) containing 10% FBS, 1% sodium pyruvate (JT Baker 3354-04), and 1% penicillin-streptomycin. Human melanoma cancer cells (A375P F11s) were cultured in RPMI (Mediatech 50-020-PB) containing 10% FBS, 1% sodium pyruvate, and 1% penicillin-streptomycin. Human colon cancer cells (HT-29) were cultured in high glucose DMEM (Mediatech 50-013-PB) containing 10% FBS and 1% penicillin-streptomycin. Human melanoma cancer cells (SK-MEL-3) were cultured in McCoy's 5A (50-025-PB) containing 15% FBS, and 1% penicillin-streptomycin. All cell lines were maintained at 37° C. in a humidified 5% CO2, 95% air incubator. Cells were harvested using trypsin/EDTA (Invitrogen 25200), counted using a haemocytometer, and plated. For 96-well assays (using white full-area NUNC plates cat. #136102), cells were plated in 105 μL at the following densities (cells/well): HNS, 500; Colo 205, 500; SK-MEL-28, 500; A375P F11s, 500; HT-29, 500; SK-MEL-3, 500; and BT474, 3000. For 384-well assays (white full-area NUNC plates, cat. #781080), cells were plated in 48 μL at the following densities (cells/well): HNS, 500; Colo205, 500; SK-MEL-28, 500; A375P F11s, 500; HT-29, 500; SK-MEL-3, 500; and BT474, 2000.
The next day, compounds were diluted as follow: For 96-well assays, 13.5 μL of compound in DMSO were diluted using nine (9) serial 1:3 dilutions of 4.5 μL in 9 of DMSO. Medium (270 μL/well of RPMI with 10% FBS and 1% penicillin-streptomycin) was added to the plates. Aliquots (7 μL) were added to cells in the final assay giving a final DMSO concentration of 0.2%. For 384-well assays, 15 μL of compound in DMSO were diluted using nine (9) serial 1:3 dilutions of 5 μL in 10 μL of DMSO, followed by a further dilution of 5 μL of compound with 95 μL of medium, of which 2 μL were added to cells in the final assay giving a final DMSO concentration of 0.2%. Cells were incubated at 37° C., 5% CO2 for 3 days.
Total ATP was measured (as a surrogate estimate of cell number) using CellTiter-Glo® reagent (Promega G7571). Briefly, plates were removed from the incubator and allowed to equilibrate to room temperature for 30 minutes. CellTiter-Glo® (25 μL or 55 μL for 384-well or 96-well assays, respectively) reagent was added to each well and plates were shaken on an orbital plate shaker for 2 minutes. Plates were incubated without shaking for a further 30 minutes and read on an LJL Analyst GT reader in luminometer mode with an integration time of 0.5 seconds per well. Percent inhibition of cell growth was calculated relative to DMSO vehicle-treated control wells. Concentration of compound required to give 50% inhibition of vehicle-treated control cell growth (IC50) was interpolated using a 4-parameter fit for determining IC50 using the following equation: Y=A +((B−A)/(1+((C/X)̂D))) where […].

T1 sequence (P04626 23-1255): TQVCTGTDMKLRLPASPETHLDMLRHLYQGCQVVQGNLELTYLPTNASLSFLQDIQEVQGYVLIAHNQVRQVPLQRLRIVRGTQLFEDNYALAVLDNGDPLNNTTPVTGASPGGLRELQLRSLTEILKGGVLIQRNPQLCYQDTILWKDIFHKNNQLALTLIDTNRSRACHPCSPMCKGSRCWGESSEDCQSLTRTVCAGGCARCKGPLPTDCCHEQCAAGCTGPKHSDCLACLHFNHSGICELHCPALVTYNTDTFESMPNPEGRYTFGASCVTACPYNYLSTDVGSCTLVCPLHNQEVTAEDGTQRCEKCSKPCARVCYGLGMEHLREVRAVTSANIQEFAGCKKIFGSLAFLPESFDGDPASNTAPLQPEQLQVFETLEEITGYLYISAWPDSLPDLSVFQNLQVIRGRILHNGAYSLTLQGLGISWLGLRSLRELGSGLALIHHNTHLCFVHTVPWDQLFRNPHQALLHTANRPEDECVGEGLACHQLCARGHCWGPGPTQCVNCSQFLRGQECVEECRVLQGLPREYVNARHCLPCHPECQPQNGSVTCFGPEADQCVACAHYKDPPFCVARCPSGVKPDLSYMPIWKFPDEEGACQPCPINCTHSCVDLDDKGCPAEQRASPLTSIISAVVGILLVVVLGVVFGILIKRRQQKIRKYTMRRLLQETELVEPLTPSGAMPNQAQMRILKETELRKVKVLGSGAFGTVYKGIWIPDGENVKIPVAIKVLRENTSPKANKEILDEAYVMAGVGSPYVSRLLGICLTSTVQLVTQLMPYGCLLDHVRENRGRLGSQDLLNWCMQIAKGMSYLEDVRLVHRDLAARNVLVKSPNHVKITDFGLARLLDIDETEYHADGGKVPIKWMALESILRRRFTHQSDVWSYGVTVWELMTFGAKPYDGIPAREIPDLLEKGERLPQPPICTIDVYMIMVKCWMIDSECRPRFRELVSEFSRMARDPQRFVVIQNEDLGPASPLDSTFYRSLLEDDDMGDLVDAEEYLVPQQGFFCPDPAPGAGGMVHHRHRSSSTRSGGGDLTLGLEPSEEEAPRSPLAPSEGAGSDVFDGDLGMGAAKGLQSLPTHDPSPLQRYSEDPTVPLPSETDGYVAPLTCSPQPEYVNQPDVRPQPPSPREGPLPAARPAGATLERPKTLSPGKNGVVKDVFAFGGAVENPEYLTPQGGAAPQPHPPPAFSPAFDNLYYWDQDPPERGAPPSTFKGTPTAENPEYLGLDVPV

pIC50 [1]	pIC50 [2]	pIC50 [3]	Compound
> 7.00	> 7.00	> 7.00	O=S(=O)(Nc1cccc(-c2nc(N3CCCC3)sc2-c2ccnc(Nc3ccc(N4CCN(CCF)CC4)c(F)c3)n2)c1)c1c(F)cccc1F [Example 21, 2,6-Difluoro-N-{3-[5-[2-({3-fluoro-4-[4-(2-fluoroethyl)-1-piperazinyl]phenyl}amino)-4-pyrimidinyl]-2-(1-pyrrolidinyl)-1,3-thiazol-4-yl]phenyl}benzenesulfonamide]
> 7.00	> 7.00	> 7.00	CC(C)c1nc(-c2ccc(F)c(NS(=O)(=O)c3ccccc3F)c2)c(-c2ccnc(Nc3ccc(N4CCN(CCS(C)(=O)=O)CC4)c(F)c3)n2)s1 [Example 22, 2-Fluoro-N-{2-fluoro-5-[5-{2-[(3-fluoro-4-}4-[2-(methylsulfonyl)ethyl]-1-piperazinyl}phenyl)amino]-4-pyrimidinyl}-2-(1-methylethyl)-1,3-thiazol-4-yl]phenyl}benzenesulfonamide hydrochloride]
6.00 to 7.00	> 7.00	> 7.00	CC(C)c1nc(-c2ccc(F)c(NS(=O)(=O)c3c(F)cccc3F)c2)c(-c2ccnc(Nc3ccc(N4CCOCC4)nc3)n2)s1 [Example 23, 2,6-Difluoro-N-{2-fluoro-5-[2-(1-methylethyl)-5-(2-{[6-(4-morpholinyl)-3-pyridinyl]amino}-4-pyrimidinyl)-1,3-thiazol-4-yl]phenyl}benzenesulfonamide]
> 7.00	> 7.00	6.00 to 7.00	CC(C)c1nc(-c2ccc(F)c(NS(=O)(=O)c3c(F)cccc3F)c2)c(-c2ccnc(Nc3ccc(N4CCN(CCF)CC4)c(F)c3)n2)s1 [Example 25]
6.00 to 7.00	> 7.00	> 7.00	CC(C)c1nc(-c2cccc(NS(=O)(=O)c3c(F)cccc3F)c2F)c(-c2ccnc(Nc3ccc(N4CCN(CCF)CC4)c(F)c3)n2)s1 [Example 29, 2,6-Difluoro-N-{2-fluoro-3-[5-[2-({3-fluoro-4-[4-(2-fluoroethyl)-1-piperazinyl]phenyl}amino)-4-pyrimidinyl]-2-(1-methylethyl)-1,3-thiazol-4-yl]phenyl}benzenesulfonamide]
< 6.00	> 7.00	> 7.00	CC(C)c1nc(-c2cccc(NS(=O)(=O)c3c(F)cccc3F)c2F)c(-c2ccnc(Nc3cnc(N4CCOCC4)c(F)c3)n2)s1 [Example 30, 2,6-Difluoro-N-{2-fluoro-3-[5-(2-{[5-fluoro-6-(4-morpholinyl)-3-pyridinyl]amino}-4-pyrimidinyl)-2-(1-methylethyl)-1,3-thiazol-4-yl]phenyl}benzenesulfonamide]

Second part, the compound before the results:

Compound	pIC50 [1]	pIC50 [2]	pIC50 [3]
CC(C)c1nc(-c2ccc(F)c(NS(=O)(=O)c3c(F)cccc3F)c2)c(-c2ccnc(Nc3ccc(N4CCC(C#N)CC4)nc3)n2)s1 [Example 24, N-{5-[5-(2-{[6-(4-Cyano-1-piperidinyl)-3-pyridinyl]amino}-4-pyrimidinyl)-2-(1-methylethyl)-1,3-thiazol-4-yl]-2-fluorophenyl}-2,6-difluorobenzenesulfonamide]	6.00 to 7.00	> 7.00	> 7.00
O=S(=O)(Nc1cc(-c2nc(N3CCCC3)sc2-c2ccnc(Nc3ccc(N4CCOCC4)nc3)n2)ccc1F)c1c(F)cccc1F [Example 26, 2,6-Difluoro-N-{2-fluoro-5-[5-(2-{(6-(4-morpholinyl)-3-pyridinyl]amino}-4-pyrimidinyl)-2-(1-pyrrolidinyl)-1,3-thiazol-4-yl]phenyl}benzenesulfonamide]	6.00 to 7.00	> 7.00	> 7.00
CN(C)c1nc(-c2ccc(F)c(NS(=O)(=O)c3c(F)cccc3F)c2)c(-c2ccnc(Nc3ccc(N4CCOCC4)nc3)n2)s1 [Example 27, N-{5-[2-(Dimethylamino)-5-(2-{[6-(4-morpholinyl)-3-pyridinyl]amino}-4-pyrimidinyl)-1,3-thiazol-4-yl]-2-fluorophenyl}-2,6-difluorobenzenesulfonamide]	6.00 to 7.00	6.00 to 7.00	> 7.00
CC(C)(C)c1nc(-c2ccc(F)c(NS(=O)(=O)c3c(F)cccc3F)c2)c(-c2ccnc(Nc3ccc(N4CCOCC4)nc3)n2)s1 [Example 28, N-{5-[2-(1,1-Dimethylethyl)-5-(2-{[[6-(4-morpholinyl)-3-pyridinyl]amino}-4-pyrimidinyl)-1,3-thiazol-4-yl]-2-fluorophenyl]-2,6-difluorobenzenesulfonamide hydrochloride]	6.00 to 7.00	> 7.00	> 7.00
CC(C)c1nc(-c2cc(F)c(F)c(NS(=O)(=O)c3cccc(F)c3)c2)c(-c2ccnc(Nc3cnc(N4CCOCC4)c(F)c3)n2)s1 [Example 31, N-{2,3-Difluoro-5-[5-(2-{[5-fluoro-6-(4-morpholinyl)-3-pyridinyl]amino}-4-pyrimidinyl)-2-(1-methylethyl)-1,3-thiazol-4-yl]phenyl}-3-fluorobenzenesulfonamide]	< 6.00	6.00 to 7.00	6.00 to 7.00
CC(C)c1nc(-c2ccnc(NS(=O)(=O)c3c(F)cccc3F)c2)c(-c2ccnc(Nc3ccc(N4CCOCC4)nc3)n2)s1 [Example 32, 2,6-Difluoro-N-{4-[2-(1-methylethyl)-5-(2-{[6-(4-morpholinyl}-3-pyridinyl]amino}-4-pyrimidinyl)-1,3-thiazol-4-yl]-2-pyridinyl}benzenesulfonamide]	< 6.00	> 7.00	> 7.00
CC(C)c1nc(-c2ccnc(NS(=O)(=O)c3c(F)cccc3F)c2)c(-c2ccnc(Nc3cnc(N4CCOCC4)c(F)c3)n2)s1 [Example 33]	< 6.00	> 7.00	> 7.00
CCc1nc(-c2cccc(CNS(=O)(=O)c3ccccc3)c2)c(-c2ccnc(Nc3ccc(N4CCOCC4)c(F)c3)n2)s1 [Example 34]	6.00 to 7.00	6.00 to 7.00	6.00 to 7.00
CC(=O)N1CCN(c2ccc(Nc3nccc(-c4sc(C(C)C)nc4-c4cccc(NS(=O)(=O)c5cn(C)cn5)c4)n3)cn2)CC1 [Example 36]	< 6.00	6.00 to 7.00	6.00 to 7.00
CC(C)c1nc(-c2cccc(NS(=O)(=O)C3CCCCC3)c2)c(-c2ccnc(Nc3ccc(N4CCOCC4)c(F)c3)n2)s1 [Example 38]	6.00 to 7.00	6.00 to 7.00	6.00 to 7.00
CC(=O)N1CCN(c2ccc(Nc3nccc(-c4sc(C(C)C)nc4-c4cccc(NS(=O)(=O)C5CCCCC5)c4)n3)cn2)CC1 [Example 39]	< 6.00	6.00 to 7.00	6.00 to 7.00
Cc1nc(Cl)sc1S(=O)(=O)Nc1cccc(-c2nc(C(C)C)sc2-c2ccnc(Nc3ccc(N4CCOCC4)nc3)n2)c1 [Example 42]	< 6.00	> 7.00	6.00 to 7.00
CC(C)c1nc(-c2cccc(NS(=O)(=O)c3c(F)cccc3F)n2)c(-c2ccnc(Nc3ccc(N4CCOCC4)nc3)n2)s1 [Example 44]	< 6.00	> 7.00	6.00 to 7.00
COc1ccc(S(=O)(=O)Nc2cccc(-c3nc(C(C)C)sc3-c3ccnc(Nc4ccc(N5CCOCC5)nc4)n3)c2)cn1 [Example 49]	< 6.00	> 7.00	> 7.00
